Measured values from ChEMBL document CHEMBL5154927, “Discovery of Novel Bicyclic Phenylselenyl-Containing Hybrids: An Orally Bioavailable, Potential, and Multiacting Class of Estrogen Receptor Modulators against Endocrine-Resistant Breast Cancer” (J Med Chem, 2022).
Activity calls are given as the source filed them. No cut-off for these calls is given here.

Experiments:
[1] = Antiproliferative activity against human MCF-10A cells assessed as reduction in cell viability measured after 72 hrs by Cell Counting Kit-8 assay; assay type: toxicity, cell-based
LCC2 [2] = experiment: Downregulation of hexokinase-1 expression in tamoxifen-resistant human LCC2 cell mitochondria at 20 uM measured after 24 hrs by DAPI staining based immunofluorescence microscopy; assay type: functional
MCF7 [3] = experiment: Downregulation of hexokinase-1 expression in human MCF7 cell outer mitochondrial membrane at 1 to 16 uM measured after 24 hrs by Western blot analysis; assay type: functional; details: Mitochondria, dose 1-16 µM
LCC2 [4] = experiment: Downregulation of hexokinase-1 expression in tamoxifen-resistant human LCC2 cell outer mitochondrial membrane measured after 24 hrs by Western blot analysis; assay type: functional; details: Mitochondria
MCF7 [5] = experiment: Induction of ROS production in human MCF7 cells at 1 to 4 uM measured after 48 hrs by DCFH-DA staining based confocal laser scanning microscopic method; assay type: functional, cell-based; details: dose 1-4 µM
LCC2 [6] = experiment: Induction of ROS production in tamoxifen-resistant human LCC2 cells at 1 to 4 uM measured after 48 hrs by DCFH-DA staining based confocal laser scanning microscopic method; assay type: functional, cell-based; details: dose 1-4 µM
MCF7 [7] = experiment: Induction of mitochondrial membrane potential loss in human MCF7 cells at 1 uM incubated for 48 hrs by JC-1 staining based flow cytometry relative to control; assay type: functional
MCF7 [8] = experiment: Induction of mitochondrial membrane potential loss in human MCF7 cells at 4 uM incubated for 48 hrs by JC-1 staining based flow cytometry relative to control; assay type: functional
MCF7 [9] = experiment: Induction of apoptosis in human MCF7 cells assessed as total apoptotic cells at 0.5 uM incubated for 48 hrs by annexin V-FITC staining based flow cytometry; assay type: functional
MCF7 [10] = experiment: Induction of apoptosis in human MCF7 cells assessed as total apoptotic cells at 1 uM incubated for 48 hrs by annexin V-FITC staining based flow cytometry; assay type: functional
LCC2 [11] = experiment: Induction of apoptosis in tamoxifen-resistant human LCC2 cells assessed as decrease in Bcl2 level at 5 to 30 uM incubated for 48 hrs by western blot analysis; assay type: functional, cell-based; details: dose 5-30 µM
LCC2 [12] = experiment: Induction of apoptosis in tamoxifen-resistant human LCC2 cells assessed as increase in Bax level at 5 to 30 uM incubated for 48 hrs by western blot analysis; assay type: functional, cell-based; details: dose 5-30 µM
MCF7 [13] = experiment: Induction of apoptosis in human MCF7 cells assessed as decrease in Bcl-2/Bax ratio by western blot analysis; assay type: functional, cell-based; details: DDE = dose-dependent effect
[14] = Tmax in BALB/C mouse at 5 mg/kg, iv by LC-MS/MS analysis; assay type: ADME, organism-based; details: in vivo
[15] = Tmax in BALB/C mouse at 20 mg/kg, po by LC-MS/MS analysis; assay type: ADME, organism-based; details: in vivo
[16] = Cmax in BALB/C mouse at 5 mg/kg, iv by LC-MS/MS analysis; assay type: ADME, organism-based; design: dose 5 mg/kg, route iv; details: in vivo
[17] = AUC in BALB/C mouse at 5 mg/kg, iv by LC-MS/MS analysis; assay type: ADME, organism-based; design: dose 5 mg/kg, route iv; details: in vivo
[18] = AUC in BALB/C mouse at 20 mg/kg, po by LC-MS/MS analysis; assay type: ADME, organism-based; design: dose 20 mg/kg, route po; details: in vivo
[19] = Volume of distribution at steady state in BALB/C mouse at 5 mg/kg, iv by LC-MS/MS analysis; assay type: ADME, organism-based; details: in vivo, read-out: Vdss
[20] = Oral bioavailability in BALB/C mouse at 20 mg/kg by LC-MS/MS analysis; assay type: ADME, organism-based; details: in vivo
MCF7 [21] = experiment: Antitumor activity against human MCF7 cells xenografted in BALB/C mouse assessed as suppression of tumor growth at 10 to 20 mg/kg, po measured every 2 days for 34 days; assay type: functional, organism-based; details: dose 10-20 mg/kg, time 34.0 day
MCF7 [22] = experiment: Antitumor activity against human MCF7 cells xenografted in BALB/C mouse assessed as increase in tumor necrosis area at 20 mg/kg, po […]; assay type: functional, organism-based
MCF7 [23] = experiment: Antitumor activity against human MCF7 cells xenografted in BALB/C mouse assessed as decrease in cell proliferation at 20 mg/kg, po by Ki67 staining based immunohistochemical analysis; assay type: functional, organism-based
[24] = Toxicity in BALB/C mouse xenografted with human MCF7 cells assessed as mortality at 10 to 20 mg/kg, po measured after 34 days; assay type: organism-based; details: in vivo, 816 h, dose 10-20 mg/kg, time 34 day
[25] = Toxicity in BALB/C mouse xenografted with human MCF7 cells assessed as change in body weight at 10 to 20 mg/kg, po measured every 2 days for 34 days; assay type: organism-based; details: in vivo, 816 h, dose 10-20 mg/kg, time 34 day
[26] = Toxicity in BALB/C mouse xenografted with human MCF7 cells assessed as morphological changes in heart at 10 to 20 mg/kg, po by hematoxylin and eosin staining based analysis; assay type: organism-based; details: in vivo, dose 10-20 mg/kg
[27] = Toxicity in BALB/C mouse xenografted with human MCF7 cells assessed as morphological changes in liver at 10 to 20 mg/kg, po by hematoxylin and eosin staining based analysis; assay type: organism-based; details: in vivo, dose 10-20 mg/kg
[28] = Toxicity in BALB/C mouse xenografted with human MCF7 cells assessed as morphological changes in kidney at 10 to 20 mg/kg, po by hematoxylin and eosin staining based analysis; assay type: organism-based; details: in vivo, dose 10-20 mg/kg
MCF7 [29] = experiment: Induction of mitochondrial membrane potential loss in human MCF7 cells incubated for 48 hrs by JC-1 staining based flow cytometry; assay type: functional, cell-based; details: dose 1-4 µM, DDE = dose-dependent effect
LCC2 [30] = experiment: Induction of apoptosis in tamoxifen-resistant human LCC2 cells assessed as increase in late apoptotic cells at 5 to 30 uM incubated for 48 hrs by annexin V-FITC staining based flow cytometry; assay type: functional, cell-based; details: dose 5-30 µM
MCF7 [31] = experiment: Antitumor activity against human MCF7 cells xenografted in BALB/C mouse assessed as reduction of tumor weight at 20 mg/kg, po measured every 2 days for 34 days; assay type: functional, organism-based; details: time 34.0 day
[32] = Toxicity in BALB/C mouse xenografted with tamoxifen-resistant human LCC2 cells assessed as mortality at 20 mg/kg, po measured after 22 days; assay type: organism-based; details: in vivo, 528 h, time 22 day
[33] = Toxicity in BALB/C mouse xenografted with tamoxifen-resistant human LCC2 cells assessed as effect on body weight at 20 mg/kg, po measured after 22 days; assay type: organism-based; details: in vivo, 528 h, time 22 day

## O=S(=O)(Oc1cccc2ccccc12)C1CC2OC1C(c1ccc([Se]c3ccccc3)cc1)=C2c1ccc(O)cc1 (stereo not drawn)
[1]
  IC50 at 72 h: > 60 µM
LCC2 [2]
  Activity: Active
MCF7 [3]
  Activity: Active
LCC2 [4]
  Activity: Active
MCF7 [5]
  Activity: Active
LCC2 [6]
  Activity: Active
MCF7 [7]
  Activity: 9.61%
MCF7 [8]
  Activity: 13.87%
MCF7 [9]
  Activity: 9.16%
MCF7 [10]
  Activity: 15.15%
LCC2 [11]
  Activity: Active
LCC2 [12]
  Activity: Active
MCF7 [13]
  Activity: Dde
[14]
  Tmax: 4.98 min
[15]
  Tmax: 2 h
[16]
  Cmax: 1490 ng/mL
[17]
  AUC: 1550 ng·h/mL
[18]
  AUC: 1430 ng·h/mL
[19]
  Vd: 21.6 L/kg
[20]
  bioavailability: 23.2%
MCF7 [21]
  Activity: Active
MCF7 [22]
  Activity: Active
MCF7 [23]
  Activity: Active
[24]
  Activity: Non-Toxic
[25]
  Activity: Non-Toxic
[26]
  Activity: Non-Toxic
[27]
  Activity: Non-Toxic
[28]
  Activity: Non-Toxic
MCF7 [29]
  Activity: Dde
LCC2 [30]
  Activity: Active
MCF7 [31]
  Activity: Active
[32]
  Activity: Non-Toxic
[33]
  Activity: Non-Toxic
